The values below come from patent publication US20030144335A1, “Preventive or remedial agent for allergic disease and medical water-based liquid preparation, eye drop, and nasal drop” (priority 2001, published 2003).

In this assay the test system is experimental allergic conjunctivitis model. Put plainly: Experimental allergic conjunctivitis model (dye leakage in palpebral conjunctiva of passively sensitized guinea pigs). Type of assay: in vivo, guinea pig. The following applies: at each concentration (0.01%, 0.1%, 1%); dose relationship confirmed.

Method: In the test, Hartley male guinea pigs (each group consisting of 8 guinea pigs) at age 6 weeks were used.
Antiserum made by the following method was used: According to the method of Levine et al (J.Immunol.,106,29-33(1971)), the guinea pigs were sensitized with 4 times-administration of physiological saline 1 ml containing 10 μg of ovalbumin (hereafter called “OA”) and 5 mg of aluminum hydroxide via the peritoneal cavity at intervals of 2 weeks. 1 week after the final sensitization, blood was sampled from the hind leg, and left at room temperature for 30 minutes. The blood was then left at 4° C. for 4-5 hours, and serum was then collected by centrifugation at 1680×9.8 m/s^2 g for 15 minutes. The serum obtained was frozen and stored at −80° C.
20 μl/site of Anti OA guinea pig serum (64 antibody titer in PCA (passive cutaneous anaphylaxis reaction)) was diluted with an equal amount of physiological saline. 20 μl/site of the solution was injected intradermally in binocular palpebral conjunctiva of the guinea pig under ether anesthesia. Thus, passive sensitization was carried out. […]
Then, 8 ml of 0.6 mol/ml of liquid mixture of phosphoric acid and acetone(5 to 13) was added and shaken; thereafter, the mixture was stirred using a homogenizer, and centrifuged at 1680×9.8/s^2 for 15 minutes. The leakage pigment quantity was colorimetered at 620 nm using a spectrophotometer. […]

With `CCS(=O)(=O)CCn1c([N+](=O)[O-])cnc1C` [tinidazole, 1-(2-ethylsulfonyl)ethyl-2-methyl-5-nitro-1H-imidazole], the “inhibitory effect on dye leakage (allergic conjunctivitis)” value is “significant inhibitory effect”.
